Laboratory results taken from patent publication US8273769B2, “Phenoxy acetic acid derivatives” (Merck Serono SA, priority 2009, dated 2012).
pEC50, pIC50: −log10 of the molar value.

Columns and labels:
CRTH2 [1] = molecular target: T1, CRTH2 (Homo sapiens, UniProt Q9Y5Y4); assay: Radioligand binding Scintillation Proximity Assay ([3H]PGD2, hCRTH2-CHO cell membranes); parameters: host or cells: CHO cells; conditions: 1.5 nM [3H]PGD2, hCRTH2-CHO cell membranes, SPA
T1 sequence (Q9Y5Y4 1-395): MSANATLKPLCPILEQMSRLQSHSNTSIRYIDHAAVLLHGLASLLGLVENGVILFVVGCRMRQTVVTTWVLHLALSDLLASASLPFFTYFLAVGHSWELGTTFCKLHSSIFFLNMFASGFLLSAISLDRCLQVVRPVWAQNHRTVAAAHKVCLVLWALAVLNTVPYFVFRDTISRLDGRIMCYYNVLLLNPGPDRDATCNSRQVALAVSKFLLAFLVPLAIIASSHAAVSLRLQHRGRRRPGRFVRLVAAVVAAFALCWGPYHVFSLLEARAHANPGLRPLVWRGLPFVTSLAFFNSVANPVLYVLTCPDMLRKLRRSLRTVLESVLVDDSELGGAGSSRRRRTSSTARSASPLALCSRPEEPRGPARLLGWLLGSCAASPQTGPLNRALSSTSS
Procedure, shortened: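 SPA competition binding at room temperature, 90 min with agitation: 1.5 nM [3H]PGD2, 10-50 μg/ml hCRTH2-CHO membrane protein, WGA SPA beads, HEPES pH 7.4 with 10 mM MnCl2, 1% DMSO. Non-specific binding defined with 10 μM PGD2; scintillation counting.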

CRTH2 [2] = molecular target: T1, CRTH2; assay: Cellular Dielectric Spectroscopy (CHO-CRTH2 cells); assay type: cell-based; parameters: expressed in transfected cells; host or cells: CHO-CRTH2 cells; conditions: for pIC50: antagonist mode, fixed concentration of PGD2 (EC80); for pEC50 / Emax: partial agonists, agonist activity without PGD2
Experimental: Cellular Dielectric Spectroscopy (CDS) is a label-free technology based on the measurement of complex impedance changes (delta Z or dZ). Impedance (Z) is related to the ratio of voltage to current as described by Ohm's law (Z=V/I). In order to measure the changes in impedance that occur in response to receptor stimulation, mammalian cells are seeded onto a custom 96-well microliter plate that contains electrodes at the bottom of each well. Key contributors to the impedance measurements are changes in cell-substrate adherence, changes in cell shape and volume, and changes in cell-cell interactions. These factors individually or collectively affect the flow of current, influencing the magnitude and characteristics of the signal measured. G-protein coupled receptors ligand-induced activity can be measured using this technology and specific G protein coupling can be identified. Activities of reference agonist and antagonist molecules of CRTH2 have been measured using this assay and similar results were obtained compared to different functional assays.
CHO-CRTH2 cells are cultured in HAM's F12 (Lonza, Switzerland) supplemented with 10% foetal calf serum (PAA, Australia) and 400 μg/ml Geneticin. 100000 cells/well are seeded in standard 96W Microplates (MDS Analytical Technologies) and incubated at 37° C. in 5% CO2 for 24 hours. Cells are washed twice with 135 μl of cell key buffer (Hank's Balanced Salt Solution 1× (HBSS) (Invitrogen) supplemented with 10 mM HEPES pH 7.4 in presence of 1% DMSO). For EC50 determination. 15 μl of increasing concentration of Compounds of Formula (I) diluted in cell key buffer are added to the cells and agonist activity is then recorded for 25 minutes. […] Results are expressed as the amplitude between the highest and the lowest signal produced (max-min). Basal and maximum activities are measured, respectively in absence or presence of PGD2 (EC80).

SMILES | pIC50 (CRTH2 [1]) | other results
Cc1ccc(S(=O)(=O)CC(C)C)cc1C#Cc1cc(Cl)ccc1OCC(=O)O [Example 53, (4-chloro-2-{[5-(isobutylsulfonyl)-2-methylphenyl]ethynyl}phenoxy)acetic acid] | 8.30 | pIC50 (CRTH2 [2]): 7.30
Cc1ccc(S(=O)(=O)CCCO)cc1C#Cc1cc(Cl)ccc1OCC(=O)O [Example 54, [4-chloro-2-({5-[(3-hydroxypropyl)sulfonyl]-2-methylphenyl}ethynyl)phenoxy]acetic acid] | 8.00 | pIC50 (CRTH2 [2]): 7.43
Cc1ccc(S(=O)(=O)N(C)C(C)C)cc1C#Cc1cc(Cl)ccc1OCC(=O)O [Example 87, {4-chloro-2-[(5-{[isopropyl(methyl)amino]sulfonyl}-2-methylphenyl)ethynyl]phenoxy}acetic acid] | 8.22 | pIC50 (CRTH2 [2]): 7.08
CCCS(=O)(=O)c1cccc(C#Cc2cc(C(F)(F)F)ccc2OCC(=O)O)c1 [Example 55, [2-{[3-(propylsulfonyl)phenyl]ethynyl}-4-(trifluoromethyl)phenoxy]acetic acid] | 7.89 | pEC50 (CRTH2 [2]): 7.62; Emax (CRTH2 [2]): 62%
Cc1ccncc1C#Cc1cc(Cl)ccc1OCC(=O)O [Example 15, {4-chloro-2-[(4-methylpyridin-3-yl)ethynyl]phenoxy}acetic acid] | 7.52 | pIC50 (CRTH2 [2]): 7.13; pEC50 (CRTH2 [2]): 7.28; Emax (CRTH2 [2]): 46%
Cc1ccc(S(=O)(=O)NC(C)C)cc1C#Cc1cc(Cl)ccc1OCC(=O)O [Example 86, [4-chloro-2-({5-[(isopropylamino)sulfonyl]-2-methylphenyl}ethynyl)phenoxy]acetic acid] | 8.30 | pIC50 (CRTH2 [2]): 6.93
CC(C)c1ccc(S(C)(=O)=O)cc1C#Cc1cc(Cl)ccc1OCC(=O)O [Example 70, (4-chloro-2-{[2-isopropyl-5-(methylsulfonyl)phenyl]ethynyl}phenoxy)acetic acid] | 8.15 | pIC50 (CRTH2 [2]): 7.68
Cc1cc[n+]([O-])cc1C#Cc1cc(Cl)ccc1OCC(=O)O [Example 31, {4-chloro-2-[(4-methyl-1-oxidopyridin-3-yl)ethynyl]phenoxy}acetic acid] | 7.72 | –
CC(C)(C)N1C(=O)c2ccc(C#Cc3cc(Cl)ccc3OCC(=O)O)cc2S1(=O)=O [Example 157, {2-[(2-tert-butyl-1,1-dioxido-3-oxo-2,3-dihydro-1,2-benzisothiazol-6-yl)ethynyl]-4-chlorophenoxy}acetic acid] | 7.77 | –
N#Cc1ccc(OCC(=O)O)c(C#Cc2cncc(S(=O)(=O)N3CCOCC3)c2)c1 [Example 77, (4-cyano-2-{[5-(morpholin-4-ylsulfonyl)pyridin-3-yl]ethynyl}phenoxy)acetic acid] | 6.44 | –
CCCS(=O)(=O)c1cccc(C#Cc2cc(-c3ccsc3)ccc2OCC(=O)O)c1 [Example 133, [2-{[3-(propylsulfonyl)phenyl]ethynyl}-4-(3-thienyl)phenoxy]acetic acid] | 7.64 | –
Cc1ccc(S(=O)(=O)C(C)C)cc1C#Cc1cc(C#N)ccc1OCC(=O)O [Example 68, (4-cyano-2-{[5-(isopropylsulfonyl)-2-methylphenyl]ethynyl}phenoxy)acetic acid] | 7.92 | –
CCS(=O)(=O)c1ccc(C)c(C#Cc2cc(C#N)ccc2OCC(=O)O)c1 [Example 63, (4-cyano-2-{[5-(ethylsulfonyl)-2-methylphenyl]ethynyl}phenoxy)acetic acid] | 7.48 | –
O=C(O)COc1ccc(Cl)cc1C#Cc1cccnc1 [Example 14, [4-chloro-2-(pyridin-3-ylethynyl)phenoxy]acetic acid] | 6.84 | –
CS(=O)(=O)c1cc(C#Cc2cc(Cl)ccc2OCC(=O)O)ccc1-c1ccc(C(F)(F)F)cc1 [Example 143, (4-chloro-2-{[2-(methylsulfonyl)-4′-(trifluoromethyl)biphenyl-4-yl]ethynyl}phenoxy)acetic acid] | 7.30 | –
CN(C)S(=O)(=O)c1cccc(C#Cc2cc(Cl)ccc2OCC(=O)O)c1 [Example 80, [4-chloro-2-({3-[(dimethylamino)sulfonyl]phenyl}ethynyl)phenoxy]acetic acid] | 7.72 | –
Cc1ccc(S(=O)(=O)N(C)CC(C)C)cc1C#Cc1cc(Cl)ccc1OCC(=O)O [Example 110, {4-chloro-2-[(5-{[isobutyl(methyl)amino]sulfonyl}-2-methylphenyl)ethynyl]phenoxy}acetic acid] | 8.30 | –

SMILES | pIC50 (CRTH2 [1]) | other results
O=C(O)COc1ccc(Cl)cc1C#Cc1ccccn1 [Example 13, [4-chloro-2-(pyridin-2-ylethynyl)phenoxy]acetic acid] | 5.84 | –
COc1cccc(-c2ccc(C#Cc3cc(Cl)ccc3OCC(=O)O)cc2S(C)(=O)=O)c1 [Example 142] | 8.05 | –
CS(=O)(=O)c1cncc(C#Cc2cc(C#N)ccc2OCC(=O)O)c1 [Example 69, (4-cyano-2-{[5-(methylsulfonyl)pyridin-3-yl}ethynyl]phenoxy)acetic acid] | 6.73 | –
O=C(O)COc1ccc(Cl)cc1C#Cc1ccncc1 [Example 12, [4-chloro-2-(pyridin-4-ylethynyl)phenoxy]acetic acid] | 6.09 | –
CCC(C)NS(=O)(=O)c1ccc(C)c(C#Cc2cc(Cl)ccc2OCC(=O)O)c1 (stereo not shown) [Example 114, [2-({5-[(sec-butylamino)sulfonyl]-2-methylphenyl}ethynyl)-4-chlorophenoxy]acetic acid] | 8.52 | –
CCCCN(C)S(=O)(=O)c1ccc(C)c(C#Cc2cc(Cl)ccc2OCC(=O)O)c1 [Example 111, {2-[(5-{[butyl(methyl)amino]sulfonyl}-2-methylphenyl)ethynyl]-4-chlorophenoxy}acetic acid] | 8.22 | –
O=C(O)COc1ccc(Cl)cc1C#Cc1ccc(Cl)cc1 [Example 2, {4-chloro-2-[(4-chlorophenyl)ethynyl]phenoxy}acetic acid] | 7.04 | –
CS(=O)(=O)c1cc(C#Cc2cc(Cl)ccc2OCC(=O)O)ccc1-c1ccc(Cl)cc1 [Example 144, (4-chloro-2-{[4′-chloro-2-(methylsulfonyl)biphenyl-4-yl]ethynyl}phenoxy)acetic acid] | 7.77 | –
Cc1ccc(S(=O)(=O)C(C)C)cc1C#Cc1cc(Cl)ccc1OCC(=O)O [Example 51, (4-chloro-2-{[5-(isopropylsulfonyl)-2-methylphenyl]ethynyl}phenoxy)acetic acid] | 8.10 | –
Cc1ccc(S(=O)(=O)CCO)cc1C#Cc1cc(Cl)ccc1OCC(=O)O [Example 52, [4-chloro-2-({5-[(2-hydroxyethyl)sulfonyl]-2-methylphenyl}ethynyl)phenoxy]acetic acid] | 7.60 | –
N#Cc1ccc(OCC(=O)O)c(C#Cc2cncc(S(=O)(=O)NCCO)c2)c1 [Example 75, {4-cyano-2-[(5-{[(2-hydroxyethyl)amino]sulfonyl}pyridin-3-yl)ethynyl]phenoxy}acetic acid] | 6.43 | –
Cc1ncccc1C#Cc1cc(Cl)ccc1OCC(=O)O [Example 22, {4-chloro-2-[(2-methylpyridin-3-yl)ethynyl]phenoxy}acetic acid] | 6.76 | –
O=C(O)COc1ccc2ccccc2c1C#Cc1cccc(O)c1 [Example 147, ({1-[(3-hydroxyphenyl)ethynyl]-2-naphthyl}oxy)acetic acid] | 6.99 | –
CC1(C)C(=O)c2ccc(C#Cc3cc(Cl)ccc3OCC(=O)O)cc2S1(=O)=O [Example 158, {4-chloro-2-[(2,2-dimethyl-1,1-dioxido-3-oxo-2,3-dihydro-1-benzothien-6-yl)ethynyl]phenoxy}acetic acid] | 7.47 | –
CCS(=O)(=O)c1ccc(C)c(C#Cc2cc(Cl)ccc2OCC(=O)O)c1 [Example 50, (4-chloro-2-{[5-(ethylsulfonyl)-2-methylphenyl]ethynyl}phenoxy)acetic acid] | 7.96 | –
Cc1ccc(S(=O)(=O)NC(C)(C)C)cc1C#Cc1cc(Cl)ccc1OCC(=O)O [Example 85, [2-({5-[(tert-butylamino)sulfonyl]-2-methylphenyl}ethynyl)-4-chlorophenoxy]acetic acid] | 8.15 | –
